One may read the ED50 as the dose that gives a 50% effect, or the effect in half of the subjects.

Like-named read-outs stand apart in the source and are kept apart here.

In test [1] the test system is striatal dopamine receptors. The experiment in a line: Antagonism of amphetamine-induced rotation in rats with unilateral substantia nigra lesions (Ungerstedt). Format: in vivo, rat. The note with it: i.p. The text has this: There is evidence that antipsychotic drugs cause EPS by interfering with neurotransmission in a nigrostriatal dopaminergic pathway. It is thought that they block dopamine receptors in the neostriatum. Therefore, the ability of a drug to block striatal dopamine receptors is a measure of its EPS liability.
To assess the potency of drugs in blocking striatal dopamine receptors a procedure was used which was developed by Ungerstedt [Ungerstedt and Arbuthnott, Brain Res. 24 485 (1970); Ungerstedt, Acta physiol. scand., Suppl. 367, 49 (1971)] using rats with unilateral lesions of the substantia nigra induced by injection of 6-hydroxydopamine. This treatment causes degeneration of the nigrostriatal dopaminergic pathway accompanied by a marked decrease in the dopamine content of the neostriatum on the side of the lesion. Animals with this lesion develop postural and motor asymmetries which are altered by drugs which affect dopaminergic activity. Amphetamine, which releases dopmine and norepinephrine from catecholaminergic neurons, causes these rats to rotate unidirectionally toward the side of the lesion. Since there is a much larger amount of dopamine to be released by amphetamine from the intact nigrostriatal neurons on the non-lesioned side than from those remaining on the lesioned side, the rotational behavior is apparently due to the preponderance of activation of striatal dopamine receptors on the intact side. The ability of a drug to antagonize the rotational behavior is therefore a measure of its ability to block striatal dopamine receptors and is indicative of its potential to produce EPS.
(§1) To predict the potential ability of a drug to cause EPS, the ratio of its ED50 (i.p.) for antagonism of amphetamine-induced rotation to its ED50 (i.p.) for blockade of shock avoidance acquisition in the rat, a procedure for assessing antipsychotic activity, (R/A ratio) is calculated.

The subject of test [2] is amphetamine-induced rotation vs. avoidance acquisition. The experiment in a line: R/A ratio: ED50 amphetamine-induced rotation / ED50 avoidance acquisition. Type of test: in vivo, rat. As for the experimental part: as §1
In test [3] the test system is shock avoidance acquisition in the rat. The experiment in a line: Antagonism of shock avoidance acquisition in the rat (antipsychotic activity). Format: in vivo. The note with it: ip, read-out: Antagonism of Avoidance Acquisition, Rats, ED50 (A). Here is the method: as §1
The mark [4] stands for this setting: clinically established antipsychotics (Table I).
Setting [5] is: ratio of i.p. ED50 values in rats, clinically established antipsychotics (Table I).
Where [6] appears, read: piperidylidene derivatives (Table II).
Where [7] appears, read: ratio of i.p. ED50 values in rats, piperidylidene derivatives (Table II).
Setting [8] is: rats, i.p., piperidylidene derivatives (Table II).

Regarding `CN(C)CCCN1c2ccccc2Sc2ccc(Cl)cc21` [Chlorpromazine, reference compound], the “Antagonism of Amphetamine-induced Rotation, Rats, ED50 (R)” value (“Antagonism” for short) in test [1] (setting [4]) was found to be 2.0 mg/kg. For the same compound, in test [2] (setting [5]), the R/A ratio was 1.3.
`O=C(CCCN1CCC(O)(c2ccc(Cl)cc2)CC1)c1ccc(F)cc1` [Haloperidol, reference compound]: the “Antagonism” value in test [1] (setting [4]) came to 0.05 mg/kg. For the same compound, the R/A ratio in test [2] (setting [5]) was 0.31.
In the case of `CN1CCC(=C2c3ccccc3Sc3ccc(Cl)cc32)CC1` [I, 4-(2-chloro-9-thioxanthenylidene)-1-methylpiperidine], the median effective dose (ED50) in test [3] stood at 0.7 mg/kg. For the same compound, the “Antagonism” value in test [1] (setting [6]) is 14.2 mg/kg. Besides, the R/A ratio in test [2] (setting [7]) amounted to 20.3.
The corresponding values for `CSc1ccc2c(c1)C(=C1CCN(C)CC1)c1ccccc1S2` [II, 1-methyl-4-(2-methylthio-9-thioxanthenylidene)-piperidine] are 0.2 mg/kg, 3.7 mg/kg and 18.5.
For `CN1CCC(=C2c3ccccc3Sc3cc(Cl)ccc32)CC1` [III, 4-(3-chloro-9-thioxanthenylidene)-1-methylpiperidine], in test [3] (setting [8]), the ED50 was determined as 5.3 mg/kg. The “Antagonism” value in test [1] (setting [6]) amounted to 30.8 mg/kg. Besides, the R/A ratio in test [2] (setting [7]) came out at 5.8.
With `CN1CCC(=C2c3ccccc3Oc3ccc(Cl)cc32)CC1` [IV, 4-(2-chloro-9-xanthenylidene)-1-methylpiperidine], the ED50 in test [3] (setting [8]) stood at 0.23 mg/kg. For the same compound, the “Antagonism” value in test [1] (setting [6]) came out at 2.8 mg/kg. In addition, in test [2] (setting [7]), the R/A ratio came out at 12.2.
Turning to `OCCN1CCC(=C2c3ccccc3Sc3ccc(Cl)cc32)CC1` [IX, 4-(2-chloro-9-thioxanthenylidene)-1-(β-hydroxyethyl)piperidine], the ED50 in test [3] (setting [8]) amounted to 0.26 mg/kg. The “Antagonism” value in test [1] (setting [6]) is given as 1.22 mg/kg. For the same compound, the R/A ratio in test [2] (setting [7]) came out at 4.7.
As for `O=c1[nH]c2ccccc2n1C1CCN(CCCC(c2ccc(F)cc2)c2ccc(F)cc2)CC1` [Pimozide, reference compound], in test [1] (setting [4]), the “Antagonism” value turned out to be 0.08 mg/kg. Moreover, the R/A ratio in test [2] (setting [5]) turned out to be 0.30.
For the compound `CN1CCN(CCCN2c3ccccc3Sc3ccc(C(F)(F)F)cc32)CC1` [Trifluoperazine, reference compound], the R/A ratio in test [2] (setting [5]) is given as 0.46.
Turning to `CSc1ccc2c(c1)C(=C1CCN(C)CC1)c1ccccc1O2` [V, 1-methyl-4-(2-methylthio-9-xanthenylidene)piperidine], the ED50 in test [3] (setting [8]) stood at 0.6 mg/kg. Also, the “Antagonism” value in test [1] (setting [6]) turned out to be 1.8 mg/kg. The R/A ratio in test [2] (setting [7]) is reported as 3.0.
The corresponding values for `CN1CCC(=C2c3ccccc3Oc3ccc(C(F)(F)F)cc32)CC1` [VI, 1-methyl-4-(2-trifluoromethyl-9-xanthenylidene)-piperidine] are 0.07 mg/kg, 0.26 mg/kg and 3.7.
With `CN1CCC(=C2c3ccccc3COc3ccc(Cl)cc32)CC1` [VII, 4-(2-chloro-11(6H)-dibenz[b,e]oxepinylidene)-1-methylpiperidine], the ED50 in test [3] (setting [8]) came to 1.7 mg/kg. Also, the “Antagonism” value in test [1] (setting [6]) amounted to 9.4 mg/kg. Also, the R/A ratio in test [2] (setting [7]) was 5.5.
For `CN1CCC(=C2c3ccccc3Oc3ccc(F)cc32)CC1` [VIII, 4-(2-fluoro-9-xanthenylidene)-1-methylpiperidine] the same measures were 0.71 mg/kg, 5.6 mg/kg and 7.9.
The corresponding values for `CN1CCC(=C2c3ccccc3Oc3ccc(Br)cc32)CC1` [X, 4-(2-bromo-9-xanthenylidene)-1-methylpiperidine] are 0.3 mg/kg, 1.6 mg/kg and 5.3.
The corresponding values for `CN1CCC(=C2c3ccccc3Oc3ccc(C#N)cc32)CC1` [XI, 4-(2-cyano-9-xanthenylidene)-1-methylpiperidine] are 0.09 mg/kg, 0.29 mg/kg and 3.2.
With `CN1CCC(=C2c3ccccc3Sc3ccc(F)cc32)CC1` [XII, 4-(2-fluoro-9-thioxanthenylidene)-1-methylpiperidine], in test [3] (setting [8]), the ED50 came out at 1.8 mg/kg. Also, in test [1] (setting [6]), the “Antagonism” value is 5.5 mg/kg. In test [2] (setting [7]), the R/A ratio is reported as 3.1.
For `CN1CCC(=C2c3ccccc3Sc3cc(F)ccc32)CC1` [XIII, 4-(3-fluoro-9-thioxanthenylidene)-1-methylpiperidine] the same measures were 3 mg/kg, 17.7 mg/kg and 5.8.
On to `CN1CCC(=C2c3ccccc3Sc3ccc(Br)cc32)CC1` [XIV, 4-(2-bromo-9-thioxanthenylidene)-1-methylpiperidine], for which the 50% effective dose (ED50) in test [3] (setting [8]) is 0.3 mg/kg. Besides, in test [1] (setting [6]), the “Antagonism” value was 2.7 mg/kg. The R/A ratio in test [2] (setting [7]) worked out at 9.0.
Regarding `Clc1ccc2c(c1)C(=C1CCN(CC3CCC3)CC1)c1ccccc1S2` [XIX, 4-(2-chloro-9-thioxanthenylidene)-1-cyclobutylmethylpiperidine], the ED50 in test [3] (setting [8]) amounted to 0.5 mg/kg. For the same compound, the “Antagonism” value in test [1] (setting [6]) is given as 1.9 mg/kg. The R/A ratio in test [2] (rat, in vivo, ip) came to 3.8.
On to `CN1CCC(=C2c3ccc(Cl)cc3Sc3ccc(F)cc32)CC1` [XV, 4-(6-chloro-2-fluoro-9-thioxanthenylidene)-1-methylpiperidine], for which, in test [3] (setting [8]), the ED50 is 0.6 mg/kg. Also, the “Antagonism” value in test [1] (setting [6]) was 8.7 mg/kg. Moreover, the R/A ratio in test [2] (setting [7]) came out at 14.5.
The corresponding values for `CN1CCC(=C2c3ccc(Cl)cc3Oc3ccc(F)cc32)CC1` [XVI, 4-(6-chloro-2-fluoro-9-xanthenylidene)-1-methylpiperidine] are 0.15 mg/kg, 1.12 mg/kg and 7.5.
Consider `CCN1CCC(=C2c3ccccc3Sc3ccc(Cl)cc32)CC1` [XVII, 4-(2-chloro-9-thioxanthenylidene)-1-ethylpiperidine], for which, in test [3] (setting [8]), the ED50 amounted to 0.5 mg/kg. The “Antagonism” value in test [1] (setting [6]) came to 5.0 mg/kg. Further, in test [2] (setting [7]), the R/A ratio was 10.0.
As to `CCCCN1CCC(=C2c3ccccc3Sc3ccc(Cl)cc32)CC1` [XVIII, 4-(2-chloro-9-thioxanthenylidene)-1-n-butylpiperidine], the ED50 in test [3] (setting [8]) amounted to 0.94 mg/kg. For the same compound, the “Antagonism” value in test [1] (setting [6]) is given as 3.1 mg/kg. The R/A ratio in test [2] (setting [7]) is listed as 3.3.
In the case of `Clc1ccc2c(c1)C(=C1CCNCC1)c1ccccc1O2` [XX, 4-(2-chloro-9-xanthenylidene)-piperidine], the ED50 in test [3] (setting [8]) stood at 1.7 mg/kg. In addition, in test [1] (setting [6]), the “Antagonism” value is on record as 8.1 mg/kg. Besides, in test [2] (setting [7]), the R/A ratio is given as 4.8.
The corresponding values for `CCN1CCC(=C2c3ccccc3Oc3ccc(Cl)cc32)CC1` [XXI, 4-(2-chloro-9-xanthenylidene)-1-ethylpiperidine] are 0.5 mg/kg, 1.8 mg/kg and 3.6.
As to `OCCN1CCC(=C2c3ccccc3Oc3ccc(Cl)cc32)CC1` [XXII, 4-(2-chloro-9-xanthenylidene)-1-(β-hydroxyethyl)-piperidine], the ED50 in test [3] (setting [8]) is 0.2 mg/kg. Further, the “Antagonism” value in test [1] (setting [6]) came out at 1.3 mg/kg. The R/A ratio in test [2] (setting [7]) was determined as 6.5.

The record behind these values is patent publication US4086350A, “Pharmaceutical compositions and method of producing anti-psychotic activity without extrapyramidal symptoms” (priority 1975, dated 1978).
